This experiment concerns the target VEGF (Homo sapiens, UniProt P15692). Conditions: for ΔG / −TΔS / ΔH / ΔCp: ITC, 95 % confidence interval in brackets; for ΔG / −TΔS / ΔH: 50 mM HEPES/NaOH, 150 mM NaCl, pH 7.5, first binding site; for ΔG: calculated from Kd (Eq. 1); for −TΔS: calculated from ΔG and ΔH (Eq. 2); for ΔH: normalised on reverse titrations; for ΔCp: heat capacity change on binding from ΔH at 20 °C and 37 °C (Eq. 3); for Δ(ΔG 20 °C) / Δ(ΔH 20 °C) / Δ(‐TΔS) 20 °C / Δ(ΔG 37 °C) / Δ(ΔH 37 °C) / Δ(‐TΔS) 37 °C / Δ(ΔCp): ± at P=95 %.

The mark [1] stands for this setting: 20 °C, peptide 2 minus peptide 1 (pair 2–1).
The mark [2] stands for this setting: 20 °C, peptide 2 minus peptide 3 (pair 2–3).
Where [3] appears, read: 37 °C, peptide 2 minus peptide 1 (pair 2–1).
Setting [4] is: 37 °C, peptide 2 minus peptide 3 (pair 2–3).
[5] abbreviates: 20 °C, monocyclic peptide minus peptide 4 (pairs 1–4, 3–4).
[6] abbreviates: 37 °C, monocyclic peptide minus peptide 4 (pairs 1–4, 3–4).
The mark [7] stands for this setting: 20 °C, bicyclic peptide minus its monocyclic counterpart.
Setting [8] is: 37 °C, bicyclic peptide minus its monocyclic counterpart.
[9] abbreviates: bicyclic peptide minus its monocyclic counterpart.

The values below come from article PMC9543606, “Structural and ITC Characterization of Peptide‐Protein Binding: Thermodynamic Consequences of Cyclization Constraints, a Case Study on Vascular Endothelial Growth Factor Ligands” (Chemistry (Weinheim an Der Bergstrasse, Germany), 2022).

“And” between values parts separate entries of the source, which are not always exact repeats. Identical values can stand only once. Like-named read-outs stand apart in the source and are kept apart here. Where a SMILES comes first, the peptide text is derived from it. Bridges are numbered along the chain shown (N, C = ends). [ ]: non-standard residue; d: D form. Nle = CCCC[C@H](N)C(=O)O

Chain of VEGF (P15692 219-313): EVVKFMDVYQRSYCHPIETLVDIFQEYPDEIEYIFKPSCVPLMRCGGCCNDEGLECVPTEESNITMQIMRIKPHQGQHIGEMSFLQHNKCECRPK

Take `CCCC[C@@H]1NC(=O)[C@H](C(C)C)NC(=O)[C@H](Cc2c[nH]cn2)NC(=O)[C@H]([C@@H](C)CC)NC(=O)[C@H](CC(=O)O)NC(=O)[C@@H](N)CSSC[C@@H](C(=O)N[C@@H](Cc2ccccc2)C(=O)N[C@@H](CCC(=O)O)C(=O)N[C@@H](CCC(=O)O)C(=O)N[C@@H](CC(C)C)C(N)=O)NC(=O)[C@H](CCCCN)NC(=O)[C@H](Cc2c[nH]c3ccccc23)NC(=O)[C@H](CCC(=O)O)NC(=O)[C@H](Cc2c[nH]c3ccccc23)NC1=O` [compound 4] (H-CDIHV[Nle]WEWKCFEEL-NH2; disulfide 1-11): the ΔCp is −0.33 [−0.38; −0.28] kcal⋅mol^−1.K^−1. Besides, under “20 °C”, the ΔG is −9.22 [−9.27; −9.16] kcal⋅mol^−1, the “−TΔS” value is 8.2 [7.8; 8.5] kcal⋅mol^−1 and the ΔH is −17.4 [−17.7; −17.1] kcal⋅mol^−1. Besides, for the setting “37 °C”, the ΔG was −8.71 [−8.80; −8.63] kcal⋅mol^−1, the “−TΔS” value is 14.3 [13.5; 15.1] kcal⋅mol^−1 and the ΔH was −23.0 [−23.7; −22.3] kcal⋅mol^−1.

With `CCCC[C@@H]1NC(=O)[C@H](C(C)C)NC(=O)[C@H](Cc2c[nH]cn2)NC(=O)[C@H]([C@@H](C)CC)NC(=O)[C@H](CC(=O)O)NC(=O)[C@@H](N)CSSC[C@@H](C(=O)N[C@@H](Cc2ccccc2)C(=O)N[C@@H](CCC(=O)O)C(=O)N[C@@H](CCCCN)C(=O)N[C@@H](CC(C)C)C(N)=O)NC(=O)[C@H](CC(=O)O)NC(=O)[C@H](Cc2c[nH]c3ccccc23)NC(=O)[C@H](CCC(=O)O)NC(=O)[C@H](Cc2c[nH]c3ccccc23)NC1=O` [compound 2], the ΔCp is −0.36 [−0.40; −0.32] kcal⋅mol^−1.K^−1. Under setting [1], the “Δ(ΔG 20 °C)” value was −0.08±0.12 kcal⋅mol^−1 and the “Δ(ΔH 20 °C)” value worked out at 2.0 ± 0.6 kcal⋅mol^−1. Besides, under setting [2], the “Δ(ΔG 20 °C)” value is 0.3 ± 0.2 kcal⋅mol^−1 and 0.33±0.12 kcal⋅mol^−1; the “Δ(ΔH 20 °C)” value is recorded as 1.4 ± 0.6 kcal⋅mol^−1; the “Δ(‐TΔS) 20 °C” value was -1.0 kcal⋅mol^−1 and −1.0±0.8 kcal⋅mol^−1. Besides, under setting [3], the “Δ(ΔG 37 °C)” value is reported as −0.25±0.08 kcal⋅mol^−1, the “Δ(ΔH 37 °C)” value was 0.7 ± 0.7 kcal⋅mol^−1 and the “Δ(‐TΔS) 37 °C” value is recorded as -1.0 ± 0.8 kcal⋅mol^−1. Also, under setting [4], the “Δ(ΔG 37 °C)” value is 0.3 ± 0.1 kcal⋅mol^−1 and 0.34±0.08 kcal⋅mol^−1; the “Δ(ΔH 37 °C)” value is 1.0 ± 0.7 kcal⋅mol^−1; the “Δ(‐TΔS) 37 °C” value was -0.6 ± 0.8 kcal⋅mol^−1. Also, for the setting “20 °C”, the ΔG was −9.13 [−9.21; −9.05] kcal⋅mol^−1 and the “−TΔS” value was 6.7 [6.3; 7.1] kcal⋅mol^−1. For the same compound, under “37 °C”, the ΔG was −8.76 [−8.82; −8.70] kcal⋅mol^−1, the “−TΔS” value was 13.3 [12.7; 13.9] kcal⋅mol^−1 and the ΔH is −22.0 [−22.6; −21.5] kcal⋅mol^−1. The “Δ(ΔCp)” value (peptide 2 minus peptide 1 (pair 2–1)) is listed as −0.07±0.05 kcal⋅mol^−1.K^−1. Under “peptide 2 minus peptide 3 (pair 2–3)”, the “Δ(ΔCp)” value was −0.02±0.05 kcal⋅mol^−1.K^−1.

As for `CCCC[C@@H]1NC(=O)[C@H](C(C)C)NC(=O)[C@H](Cc2c[nH]cn2)NC(=O)[C@H]([C@@H](C)CC)NC(=O)[C@H](CC(=O)O)NC(=O)[C@@H](N)CSSC[C@@H](C(=O)N[C@@H](Cc2ccccc2)C(=O)N[C@@H](CCC(=O)O)C(=O)N[C@@H](CC(=O)O)C(=O)N[C@@H](CC(C)C)C(N)=O)NC(=O)[C@H](CCCCN)NC(=O)[C@H](Cc2c[nH]c3ccccc23)NC(=O)[C@H](CCC(=O)O)NC(=O)[C@H](Cc2c[nH]c3ccccc23)NC1=O` [compound 1] (H-CDIHV[Nle]WEWKCFEDL-NH2; disulfide 1-11), the ΔCp is −0.29 [−0.32; −0.26] kcal⋅mol^−1.K^−1. Besides, under setting [5], the “Δ(ΔG 20 °C)” value was 0.2 ± 0.1 kcal⋅mol^−1 and 0.16±0.10 kcal⋅mol^−1; the “Δ(ΔH 20 °C)” value was -0.4 ± 0.6 kcal⋅mol^−1; the “Δ(‐TΔS) 20 °C” value was 0.6 ± 0.7 kcal⋅mol^−1. Besides, under setting [6], the “Δ(ΔG 37 °C)” value was 0.2 ± 0.1 kcal⋅mol^−1 and 0.20±0.09 kcal⋅mol^−1; the “Δ(ΔH 37 °C)” value amounted to 0.2 ± 0.8 kcal⋅mol^−1; the “Δ(‐TΔS) 37 °C” value is 0.0 ± 1.0 kcal⋅mol^−1. In addition, where the note is “20 °C”, the ΔG is −9.05 [−9.15; −8.97] kcal⋅mol^−1 and the “−TΔS” value is 8.7 [8.2; 9.3] kcal⋅mol^−1. Besides, under “37 °C”, the ΔG was −8.51 [−8.56; −8.46] kcal⋅mol^−1, the “−TΔS” value is 14.2 [13.8; 14.7] kcal⋅mol^−1 and the ΔH is −22.8 [−23.1; −22.4] kcal⋅mol^−1. Moreover, the “Δ(ΔCp)” value (monocyclic peptide minus peptide 4 (pairs 1–4, 3–4)) turned out to be 0.04±0.06 kcal⋅mol^−1.K^−1.

Turning to `CCCC[C@@H]1NC(=O)[C@H](C(C)C)NC(=O)[C@H](Cc2c[nH]cn2)NC(=O)[C@H]([C@@H](C)CC)NC(=O)[C@H](CC(=O)O)NC(=O)[C@@H](N)CSSC[C@@H]2NC(=O)[C@H](CCCCNC(=O)CC[C@@H](C(=O)N[C@@H](CC(C)C)C(N)=O)NC(=O)[C@H](CCC(=O)O)NC(=O)[C@H](Cc3ccccc3)NC2=O)NC(=O)[C@H](Cc2c[nH]c3ccccc23)NC(=O)[C@H](CCC(=O)O)NC(=O)[C@H](Cc2c[nH]c3ccccc23)NC1=O` [4 c] (H-CDIHV[Nle]WEWKCFEEL-NH2; disulfide 1-11; lactam 10-14), the ΔCp is −0.37 [−0.43; −0.31] kcal⋅mol^−1.K^−1. The “Δ(ΔG 20 °C)” value (20 °C, bicyclic peptide minus its monocyclic counterpart (1 c–1, 2 c–2, 3 c–3, 4 c–4)) is listed as 0.06±0.12 kcal⋅mol^−1. Further, under setting [7], the “Δ(ΔH 20 °C)” value turned out to be 1.4±0.7 kcal⋅mol^−1 and the “Δ(‐TΔS) 20 °C” value was −1.3±0.9 kcal⋅mol^−1. Besides, under setting [8], the “Δ(ΔG 37 °C)” value is reported as 0.04±0.14 kcal⋅mol^−1, the “Δ(ΔH 37 °C)” value is reported as 0.8±1.2 kcal⋅mol^−1 and the “Δ(‐TΔS) 37 °C” value is −0.8±1.3 kcal⋅mol^−1. Moreover, where the note is “20 °C”, the ΔG is −9.16 [−9.27; −9.05] kcal⋅mol^−1, the “−TΔS” value is 6.8 [6.1; 7.6] kcal⋅mol^−1 and the ΔH was −16.0 [−16.6; −15.4] kcal⋅mol^−1. Also, for the setting “37 °C”, the ΔG was −8.68 [−8.79; −8.56] kcal⋅mol^−1, the “−TΔS” value was 13.5 [12.5; 14.7] kcal⋅mol^−1 and the ΔH is −22.2 [−23.2; −21.3] kcal⋅mol^−1. The “Δ(ΔCp)” value under setting [9] is −0.04±0.08 kcal⋅mol^−1.K^−1.

As for `CCCC[C@@H]1NC(=O)[C@H](C(C)C)NC(=O)[C@H](Cc2c[nH]cn2)NC(=O)[C@H]([C@@H](C)CC)NC(=O)[C@H](CC(=O)O)NC(=O)[C@@H](N)CSSC[C@@H]2NC(=O)[C@H](CCC(=O)NCCCC[C@@H](C(=O)N[C@@H](CC(C)C)C(N)=O)NC(=O)[C@H](CCC(=O)O)NC(=O)[C@H](Cc3ccccc3)NC2=O)NC(=O)[C@H](Cc2c[nH]c3ccccc23)NC(=O)[C@H](CCC(=O)O)NC(=O)[C@H](Cc2c[nH]c3ccccc23)NC1=O` [3 c], the ΔCp was −0.38 [−0.41; −0.35] kcal⋅mol^−1.K^−1. Also, under setting [7], the “Δ(ΔH 20 °C)” value is 1.2±0.7 kcal⋅mol^−1 and the “Δ(‐TΔS) 20 °C” value is −1.6±0.8 kcal⋅mol^−1. Under setting [8], the “Δ(ΔH 37 °C)” value is given as 0.6±0.6 kcal⋅mol^−1 and the “Δ(‐TΔS) 37 °C” value is recorded as −1.1±0.7 kcal⋅mol^−1. Also, for the setting “20 °C”, the ΔG entry is “−.89 [−10.01; −9.78] kcal⋅mol^−1”, the “−TΔS” value is 6.1 [5.6; 6.5] kcal⋅mol^−1 and the ΔH was −16.0 [−16.3; −15.6] kcal⋅mol^−1. Besides, for the setting “37 °C”, the ΔG is −9.61 [−9.71; −9.52] kcal⋅mol^−1, the “−TΔS” value was 12.8 [12.3; 13.2] kcal⋅mol^−1 and the ΔH was −22.4 [−22.8; −22.0] kcal⋅mol^−1. Under setting [9], the “Δ(ΔCp)” value was −0.04±0.05 kcal⋅mol^−1.K^−1.
